These results are taken from PubChem BioAssay (NCI).

Experiment in all cases: NCI anticancer screen, dose series, 48 h
Assay [1] relates to IGROV1 ovarian.
Assay [2] concerns SW-620 colon.
The subject of assay [3] is MDA-MB-435.
Assay [4] deals with SK-MEL-5 melanoma.
Assay [5] concerns HCT-15 colon.
In assay [6] the test system is HT29 colon.
The test system of assay [7] is OVCAR-4 ovarian.
For assay [8], the system named is COLO 205 colon.
The subject of assay [9] is CAKI-1 renal.
For assay [10], the system named is HS 578T breast.

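Where inhibition never reached the appropriate level, the endpoint shown equals the highest concentration tested. Otherwise, values were interpolated linearly from a five-concentration, 48-hour dose response in 96-well plates. The concentration for 50% growth inhibition is given as GI50. TGI denotes the concentration required for complete inhibition of growth.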

Consider `O=C(O)c1ccc([N+](=O)[O-])c(P(=O)(O)O)c1`, for which the TGI in assay [1], in assay [2], in [3], in assay [4], in [5] and in assay [6] was > 100 µM in each case. In addition, the TGI in [7], in assay [8] and in [9] was > 100 µM in each case.
With `COC(=O)C(=C\Sc1ccccc1)/C=C/C(=O)OC(C)(C)C`, the TGI in [1] worked out at 27.5 µM; in [2], 12.4 µM; in assay [4], 28.6 µM; in assay [5] it was 17.7 µM; in assay [6] it was 36.1 µM; in assay [7] it was 28.6 µM. Besides, the TGI in [8] was determined as 14 µM; in [9] it was 12.1 µM.
As for `O=S1Cc2ccccc2CS1` (stereo unspecified), the TGI in assay [1] was > 100 µM; in [2], 27.1 µM; in assay [4] it was > 100 µM; in [5] it was > 100 µM; in [6], 30.1 µM; in assay [7] it was 30.6 µM. The TGI in assay [8] came to 28.8 µM; in assay [9], 31.1 µM.
For the molecule `Cc1ccc(/C=C/C(=O)c2sc(C(N)=S)nc2C)cc1`, the TGI in [1], in assay [2], in assay [4], in assay [5], in assay [6] and in [8] was > 100 µM each time. Also, the TGI in [9] was > 100 µM.
With `Cc1cc(=O)[nH]c(CNC(=O)c2cccc3ccccc23)n1`, the TGI in assay [1], in assay [2], in assay [4], in [5], in assay [6] and in assay [7] was > 100 µM throughout. Further, the TGI in [8] and in assay [9] was > 100 µM each time.
In the case of `O=C(Nc1cccc(-n2cc(-c3ccncc3)c(-c3cc(O)cc(Cl)c3)n2)c1)Nc1ccc(Cl)c(Cl)c1`, the GI50 in [1] is 2.86 µM; in [2] it was 3.22 µM; in [10], 3.23 µM; in [4], 1.62 µM; in assay [5] it was 2.1 µM; in [6], 1.92 µM. The GI50 is 1.96 µM in assay [8] and 2.21 µM in assay [9]. Besides, the TGI in assay [1] was 9.23 µM; in [2] it was 9.97 µM; in assay [10], > 100 µM; in [4] it was 3.04 µM; in assay [5], 8.04 µM; in [6] it was 3.9 µM. Moreover, the TGI in assay [8] turned out to be 3.78 µM; in assay [9] it was 7.01 µM.
In the case of `COC(=O)C1C(=O)O[C@@H](c2ccc(OC)cc2)C1C(=O)OC` (stereo partly specified), the TGI in assay [1], in [2], in [4], in assay [6], in assay [7] and in [8] was > 100 µM throughout. In assay [9], the TGI is > 100 µM.
`CC12Oc3ccc4ccccc4c3C1c1c(ccc3ccccc13)O2` (stereo unspecified): the TGI in assay [1], in assay [2], in [4], in assay [6], in assay [7] and in assay [8] was > 100 µM each time. Besides, in assay [9], the TGI was > 100 µM.
Turning to `Cn1c(O)c(C=N)c(=O)n(C)c1=O`, the TGI in assay [2], in assay [4], in assay [5], in [6], in [7] and in [9] was > 100 µM each time.
Turning to `CC(=O)N(/N=C\c1ccc([N+](=O)[O-])cc1)c1ccccc1`, the TGI in assay [1], in assay [2], in assay [4], in [5], in [6] and in assay [7] was > 100 µM in each case. The TGI in assay [8] and in [9] was > 100 µM throughout.
For `CC1C(=O)CCC1C(Sc1ccccc1)(Sc1ccccc1)Sc1ccccc1` (stereo unspecified), the TGI in assay [1] was 78.4 µM; in [2], > 100 µM; in [4], 73.5 µM; in assay [5], > 100 µM; in [6], > 100 µM; in [7], > 100 µM. The TGI in assay [8] and in assay [9] was > 100 µM in each case.
For `O=C1OCC2=C1C(c1cccc([N+](=O)[O-])c1)c1cc3c(cc1N2CCO)CCC3` (stereo unspecified), the GI50 was 0.255 µM in [1]; 0.179 µM in assay [2]; 0.18 µM in assay [10]; 0.127 µM in assay [4]; 0.121 µM in assay [5]; 0.176 µM in [6]. The GI50 was 2.03 µM in [7], 0.153 µM in [8] and 0.083 µM in assay [9]. Further, the TGI in assay [1] is > 50 µM; in [2], > 50 µM; in assay [10], > 50 µM; in assay [4], 3.56 µM; in [5] it was > 50 µM; in [6] it was 21.6 µM. Moreover, the values for the TGI in [7], in [8] and in assay [9] were > 50 µM, 2.39 µM and > 38 µM, respectively.
`COC1OC(COCc2ccc(Cl)cc2)C(OCc2ccc(Cl)cc2)C1O` (stereo unspecified): the TGI in assay [1] is 50.9 µM; in assay [2], 29.6 µM; in assay [4], 28.6 µM; in [5], 32.3 µM; in assay [6] it was 33.2 µM; in [7], > 100 µM. The TGI was 34.3 µM in assay [8] and 54.2 µM in [9].
As for `O=[n+]1cnn([O-])c2ccccc21`, the TGI was 28.5 µM in assay [1]; 46.1 µM in assay [2]; > 100 µM in [10]; > 100 µM in [3]; 35.6 µM in assay [5]; 40.4 µM in assay [6]. Also, the TGI stood at 40.7 µM in assay [8] and 55.1 µM in assay [9].
